According to PMC10272271, “MAM-2201 acute administration impairs motor, sensorimotor, prepulse inhibition, and memory functions in mice: a comparison with its analogue AM-2201” (Psychopharmacology, 2023):

Columns and labels:
[1] = biological target: T1, human CB1 receptors (Homo sapiens, UniProt P21554); test: Cyclic AMP assay, hCB1 CHO cells; assay type: cell-based; details: for agonist behaviour (inhibition of forskolin-stimulated cAMP production): CHO cells, human CB1
T1 construct: host or cells: CHO cells
T1 sequence (P21554 whole entry): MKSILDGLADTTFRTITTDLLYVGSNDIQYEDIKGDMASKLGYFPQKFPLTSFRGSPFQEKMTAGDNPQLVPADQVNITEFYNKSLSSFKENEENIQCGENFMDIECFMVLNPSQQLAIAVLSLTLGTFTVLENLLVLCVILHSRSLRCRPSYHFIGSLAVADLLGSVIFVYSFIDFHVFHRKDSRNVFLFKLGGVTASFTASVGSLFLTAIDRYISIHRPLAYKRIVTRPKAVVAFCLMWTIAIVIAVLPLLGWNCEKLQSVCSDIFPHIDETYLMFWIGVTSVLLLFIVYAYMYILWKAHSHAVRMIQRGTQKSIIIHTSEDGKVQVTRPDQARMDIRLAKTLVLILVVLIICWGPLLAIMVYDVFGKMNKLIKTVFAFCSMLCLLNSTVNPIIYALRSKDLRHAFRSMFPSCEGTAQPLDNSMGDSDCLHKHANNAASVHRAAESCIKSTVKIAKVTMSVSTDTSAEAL
Method: CHO cells transfected with human CB1 or CB2 receptors were washed with PBS, detached with trypsin, and centrifuged for 10 min at 200 × g. The pellet containing 1 × 10^6 cells/assay was suspended in 0.5 ml of buffer containing150 mM NaCl, 2.7 mM KCl, 0.37 mM NaH2PO4, 1 mM MgSO4, 1 mM CaCl2, 5 mM HEPES, 10 mM MgCl2, and 5 mM glucose, at pH 7.4 and 37 °C. Cells were pre-incubated with 0.5 mM of the phosphodiesterase inhibitor 4-(3-butoxy-4-methoxybenzyl)-2-imidazolidinone (Ro 20–1724;) for 10 min in a shaking bath at 37 °C. The potency of the examined compounds to inhibit adenylate cyclase activity was determined in the presence of forskolin 1-µM stimulation. The reaction was terminated by the addition of cold 6% trichloroacetic acid (TCA) and the final aqueous solution was tested for cyclic AMP levels by a competition protein binding assay (AlphaScreen cAMP Detection Kit, Cat. Number 6760635D, Perkin Elmer Life and Analytical Sciences, USA) following the manufacturer’s instructions; Vincenzi et al. [2013]).
(§1) The protein concentration was determined according to a Bio-Rad method (500–0006; Bio-Rad Laboratories, Hercules, CA, USA) with bovine serum albumin as a reference standard. Inhibitory binding constants, Ki, were calculated from the IC50 values according to the Cheng and Prusoff equation: Ki = IC50/(1 + [C*]/KD*), where [C*] is the concentration of the radioligand and KD* its dissociation constant. Functional experiments were analyzed by non-linear regression analysis using the equation for a sigmoid concentration–response curve (GraphPad Prism, USA). All the data are expressed as the mean ± SEM of three independent experiments.

[2] = biological target: T1, human CB1 receptors; test: [3H]-CP-55,940 competition binding, hCB1 CHO membranes; details: for selectivity index (ratio Ki CB2 / Ki CB1): human CB receptors
Method: CHO cells transfected with human CB1 or CB2 receptors (Perkin Elmer Life and Analytical Sciences, USA) were grown adherently and maintained in Ham’s F12 containing 10% fetal bovine serum, penicillin (100 U/ml), streptomycin (100 µg/ml), and Geneticin (G418, 0.4 mg/ml) at 37 °C in 5% CO2/95% air. To obtain membranes, cells were washed with PBS and scraped off with ice-cold hypotonic buffer (5 mM Tris HCl, 2 mM EDTA, pH 7.4). The cell suspension was homogenized with a Polytron and then centrifuged for 30 min at 40,000 × g. The membrane pellet was suspended in 50 mM Tris HCl buffer (pH 7.4) containing 2.5 mM EDTA, 5 mM MgCl2, 0.5% BSA for CB1 receptors or in 50 mM Tris HCl (pH 7.4), 1 mM EDTA, 5 mM MgCl2, 0.5% BSA for CB2 receptors (Vincenzi et al. [2013]).
(§2) Competition binding experiments were carried out incubating 0.5 nM [^3H]-CP-55,940 (Perkin Elmer Life and Analytical Sciences, USA) and different concentrations of the tested compounds for 90 or 60 min at 30 °C for CB1 or CB2 receptors, respectively. For human cannabinoid receptors, membranes obtained from CHO cells transfected with human CB1 or CB2 receptors (2 µg protein/100 µl) were used. Competition binding experiments at murine cannabinoid receptors were performed with mouse brain membranes (40 µg protein/100 µl) or with mouse spleen membranes (80 µg protein/100 µl) for CB1 receptors or CB2 receptors, respectively. Non-specific binding was determined in the presence of 1 mM WIN 55,212–2 (Vincenzi et al. [2013]). Bound and free radioactivity were separated by filtering the assay mixture through Whatman GF/C glass fiber filters using a Brandel cell harvester (Brandel Instruments, Unterföhring, Germany). The filter-bound radioactivity was counted using a Packard Tri Carb 2810 TR scintillation counter (Perkin Elmer Life and Analytical Sciences, USA).
as §1

[3] = biological target: T2, murine CB2 receptors (Mus musculus, UniProt P47936); test: [3H]-CP-55,940 competition binding, mouse spleen membranes
T2 construct: membranes from mouse brain and spleen were used, respectively; from tissue; host or cells: mouse spleen membranes, CD-1 mice
T2 sequence (P47936 whole entry): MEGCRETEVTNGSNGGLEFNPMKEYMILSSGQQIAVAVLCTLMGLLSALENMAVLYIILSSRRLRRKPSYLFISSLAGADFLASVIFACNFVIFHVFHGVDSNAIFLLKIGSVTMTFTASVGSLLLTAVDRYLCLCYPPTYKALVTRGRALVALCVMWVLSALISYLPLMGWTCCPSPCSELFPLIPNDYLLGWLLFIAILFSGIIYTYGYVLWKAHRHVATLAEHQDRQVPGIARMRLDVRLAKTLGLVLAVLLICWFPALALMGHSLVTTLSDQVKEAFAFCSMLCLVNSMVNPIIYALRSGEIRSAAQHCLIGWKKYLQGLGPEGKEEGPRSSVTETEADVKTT
Method: To evaluate the affinity of synthetic cannabinoids for murine CB1 and CB2 receptors, membranes from mouse brain and spleen were used, respectively. Following excision from mice, tissues were suspended in 50 mM Tris HCl, pH 7.4 at 4 °C. The mouse brain and spleen tissues were homogenized with a Polytron and subsequently centrifuged for 10 min at 2000 × g. The resulting supernatants were filtered, centrifuged for 20 min at 40,000 × g and the pellets were used for competition binding experiments (Vincenzi et al. [2013]).
as §2, with “For human cannabinoid receptors, membranes obtained from CHO cells transfected with human CB1 or CB2 receptors (2 µg protein/100 µl) were used. Competition binding experiments at murine cannabinoid receptors were performed with mouse brain membranes (40 µg protein/100 µl) or with mouse spleen membranes (80 µg protein/100 µl) for CB1 receptors or CB2 receptors, respectively.” left out
The protein concentration was determined according to a Bio-Rad method (500–0006; Bio-Rad Laboratories, Hercules, CA, USA) with bovine serum albumin as a reference standard. […]

Structure (SMILES) | IC50 [1] [nM] | agonist behaviour (inhibition of forskolin-stimulated cAMP production) [1] | Ki [2] [nM] | selectivity index (ratio Ki CB2 / Ki CB1) [2] | Ki [3] [nM]
O=C(c1cccc2ccccc12)c1cn(CCCCCF)c2ccccc12 [AM-2201, 1-[(5-Fluoropentyl)-1H-indol-3-yl](1-naphthylenyl) methanone] | 2.84 ± 0.21 | full agonists | 1.66 ± 0.13 | 9.9 | 14.6 ± 1.2
Cc1ccc(C(=O)c2cn(CCCCCF)c3ccccc23)c2ccccc12 [MAM-2201, 1-[(5-fluoropentyl)-1H-indol-3-yl](4-methyl-1-naphthalenyl) methanone] | 1.26 ± 0.56 | full agonists | 1.11 ± 0.12 | 9.3 | 9.6 ± 1.9
